# Measurements taken from patent US8632813B2, “Prostaglandin compositions and methods for the treatment of vasospasm” (Nexmed (Holdings), Inc., priority 2003, dated 2014).
# What was measured:
# [1] = test system: vasospasm induced by adrenaline hydrochloride, femoral artery; assay: Ultrasonography of blood flow volume in surgically exposed femoral artery with adrenaline-induced vasospasm (Example 4); format: in vivo, New Zealand Rabbits; details: four drops of papaverine (30 mg/ml) on exposed femoral artery; for The Average Time Required To Return To The Initial Blood Flow Volume: 120 minute test
# Protocol: Rabbits were obtained and anesthetized as described in Example 2, above. A total of 70 rabbits were randomly assigned into 7 groups with 10 rabbits per group. Blood flow velocity and vascular cross section area were measured and analyzed using a Toshiba Multifunction Ultrasonography 6000 system. A portion of femoral artery about 2 cm long was exposed through a 3 cm incision. […] The entire test was performed under a constant room temperature of 20 degrees Celsius. About ten minutes after the application of adrenaline hydrochloride, the operating field was irrigated with sterile saline topically and dried with sterile pad. […] The incision was closed after the application of the topical composition. The ultrasonic probe was put at a fixed location 1 cm from the incision. […] In general, blood flow volume=blood flow velocity×vascular cross section The data were expressed as average±SD; t-test was used for statistical analysis. The averaged data are reported in Table 9, below, as instantaneous blood flow volume±standard deviation (SD), N=10, and shown graphically in FIG. 6.
# [2] = test system: vasospasm, central artery and vein of the ear; assay: Pilot study of 0.4% PGE1 topical composition on adrenaline-induced ear vasospasm (Example 5, FIG. 1-2); format: in vivo, New Zealand rabbit; details: 1 mg of PGE1 dissolved in 75% aqueous ethanol on skin of right ear
# Excerpt: The objects of these pilot studies were designed to explore the efficacy of a specially formulated 0.4 wt % PGE1 topical composition for treating vasospasm and skin disorders that result from insufficient local blood circulation. Twenty four adult New Zealand rabbit, 3-4 kg, were divided into three groups: 12 rabbits were assigned into a Test Study Group; 6 rabbits were assigned into a PGE1 Control Group and 6 rabbits were assigned into an Alcohol Control Group. One rabbit of each Group was selected to enter the study at the same time for each of the first six studies.
# The rabbit's right ear was selected to be the test application site, while its left ear was observed as a control. An adrenaline solution (0.2 ml of a 0.1% (1:1000) solution) was injected into the area adjacent to both the central artery and vein near the bottom of both ears. Classic vasospasm appeared five minutes later on both ears. One of three test substances, 125 mg of a 0.4% PGE1 topical composition containing 1.8% DDAIP HCl was applied to a 2 cm×2 cm area of skin adjacent to the central artery and vein of the right ear.
# Vasospasm was induced in the same way in both ears of the rabbits of the PGE1 Control Group and the Alcohol Control Group. Similarly, 1 mg of PGE1 dissolved in 75% aqueous ethanol, or the 75% aqueous ethanol vehicle alone were applied to the right ears of the rabbits of the PGE1 Control Group and the Alcohol Control Group respectively. The time course of changes in blood vessel diameter was observed.
SMILES,The accumulated blood flow volume from 10 minutes after vasospasm to 120 minutes after drug administration [1],instantaneous blood flow volume ([1]; 5 min after Drug),instantaneous blood flow volume ([1]; 5 min after Vasospasm (before drug)),instantaneous blood flow volume ([1]; 10 min after Drug),instantaneous blood flow volume ([1]; 10 min after Vasospasm (before drug)),instantaneous blood flow volume ([1]; 15 min after Drug),instantaneous blood flow volume ([1]; 30 min after Drug),instantaneous blood flow volume ([1]; 60 min after Drug),instantaneous blood flow volume ([1]; 90 min after Drug),instantaneous blood flow volume ([1]; 120 min after Drug),The Average Time Required To Return To The Initial Blood Flow Volume [1],The Average Time Required To Return To The Initial Blood Flow Volume ([1]; listed as papaverine),instantaneous blood flow volume ([1]; Normal Condition (before drug)),The accumulated blood flow volume from 10 minutes after vasospasm to 120 minutes after drug administration ([1]; listed as papaverine),changes of the vascular bed of the right ear [2],duration of the dilation effect [2],time after application at which the vasospasm was alleviated slightly [2],time until vessels of the right ear were dilated [2]
"COc1ccc(Cc2nccc3cc(OC)c(OC)cc23)cc1OC [Papaverine, papaverine]",2341 ± 94.87 cm^3,319 ± 13.27 mm^3/s,107 ± 4.11 mm^3/s,358 ± 13.95 mm^3/s,86 ± 4.76 mm^3/s,402 ± 18.44 mm^3/s,435 ± 17.76 mm^3/s,296 ± 12.58 mm^3/s,287 ± 11.96 mm^3/s,274 ± 10.88 mm^3/s,5 min,produced recovery of blood flow volume,325 ± 9.80 mm^3/s,a slightly greater effect that was comparable to that produced by composition comprising 80 μg PGE1,–,–,–,–
"CCCCC[C@H](O)/C=C/[C@H]1[C@H](O)CC(=O)[C@@H]1CCCCCCC(=O)O [PGE1 dissolved in 75% aqueous ethanol, Prostaglandin E1]",–,–,–,–,–,–,–,–,–,–,–,–,–,–,No significant remaining changes were observed,60 min,20 min,30 min
